Data on six molecules can be found in patent US7229621B2, “Method to enhance the immunogenicity of an antigen” (Torrey Pines Institute for Molecular Studies, priority 1998, dated 2007).

Assay [1] deals with Langerhans cells (immature dendritic cells). The experiment in a line: FITC screening assay: Langerhans/dendritic cell migration to draining inguinal lymph node after topical FITC in acetone plus migration inducer. Format: in vivo, C57BL/6 mice. The note with it: for Amt. Antigen/DC (mean fluorescence intensity of the dendritic cells) / Total DC (FITC+ plus FITC- dendritic cells per lymph node) / Antigen^+ DC (FITC+ MHC class II^Hi cells per lymph node): FITC 5 mg/ml in 50:50 acetone and test agent; for Amt. Antigen/DC (mean fluorescence intensity of the dendritic cells) / Total DC (FITC+ plus FITC- dendritic cells per lymph node): 48 hrs later; for Antigen^+ DC (FITC+ MHC class II^Hi cells per lymph node): inguinal lymph nodes 48 hrs later; for effect on FITC+ and total dendritic cell migration into the lymph node: topical FITC in acetone plus agent on shaved abdominal skin, 2 days after treatment (FIG. 1). From the text: Fluorescein isothiocyanate (FITC) has been used extensively by the inventor and others, to characterize Langerhans cell migration. FITC is a small (389 Da) non-peptide, largely lipophilic molecule, capable of crossing the stratum corneum. The antigenicity of FITC is due to the reactivity of its isothiocyanate group (—N═C═S) with free amino groups, permitting it to be covalently bound to proteins and/or peptides. C57BL/6 mice received the following treatments: 1) none; 2) shaving of the abdominal skin only; or shaving of the abdominal skin followed by either 3) topical administration of FITC in acetone; 4) topical administration of FITC in acetone and olive oil; 5) topical administration of FITC in acetone and DMSO diluted in phosphate buffered saline (PBS); or 6) topical administration of FITC in acetone and dibutyl phthalate. The draining inguinal lymph nodes were then examined for immigrant dendritic cells by immunofluorescent flow cytometry each day thereafter. Migratory Langerhans cells were identified by the presence of FITC and co-expression of high MHC class II molecules or by co-expression of the DEC 205 ligand for the monoclonal antibody, NLDC-145. Dendritic cell residents of the lymph nodes could be differentiated by their high expression of MHC class II molecules but lack of FITC, or by their lack of FITC but co-expression of the ligand for the dendritic cell-specific monoclonal antibody, 33D1. The uptake of FITC and the Langerhans cell response to migratory signals were observable in the draining lymph node as early as six hours after topical administration. However, 48–72 hours was required for maximal immigration of FITC-bearing Langerhans cells into the lymph node. FIG. 1 illustrates the effect of various treatment regimens on the total and FITC+ dendritic cells 2 days after treatment. […] Thus, dibutyl phthalate was a very potent migration inducer.
Compounds which are useful as inducers of immature dendritic cell migration may be screened using the standard FITC methods described for the data presented in FIGS. 1—3. C57BL6 mice are shaved on their abdomens and painted with 100–200 μl of the test solution, containing 5 mg/ml FITC in a 50/50 (v/v) mixture of acetone and the migration inducer (e.g. dibutyl phthalate). After 2 days, the draining inguinal lymph nodes are removed and the total number of dendritic cells (both FITC+ and FITC−) is determined by flow cytometry and MHC class II immunofluorescence or other markers specific for dendritic cells.
The antigen employed was FITC and the procedure was identical to that used for the experiments depicted in FIG. 1. Namely, FITC at 5 mg/ml was dissolved in a 50:50 solution of acetone and the test agents for migration induction. The test agents used in this experiment were: dibutylfumarate (Agent #1); diisooctylmaleate (Agent #2); and dibutyl-D-tartarate (Agent #3). The inguinal lymph nodes were examined 48 hrs later for the presence of FITC+ and FITC-dendritic cells as detailed previously.
The antigen used was FITC, which was applied topically to the shaved abdominal skin of C57BL/6 mice at 5 mg/ml in a 50:50 solution of dibutyl phthalate and acetone. Each of the applications was identical, with half of the mice in each group receiving the first application only (none) and half receiving the first application followed by a second application at the specified interval (14 days or 21 days) after the first application. The inguinal lymph node cells were examined by flow cytometry for FITC+ dendritic cells, as detailed previously, 48 hrs after each treatment.

The subject of another assay is E.G7-OVA tumor cells. The experiment in a line: E.G7-OVA tumor growth after immunization with tumor antigen and migration inducer. In kind it is in vivo, C57BL/6 mice. The conditions noted are these: 50 μl of 1.25 mM OVA in HBSS injected, DBP in acetone topically an hour later; tumor inoculation one month later (FIG. 12). The text has this:
The tumor cell, E.G7-OVA, is the C57BL/6 EL4 thymoma transfected with the complete gene for chicken ovalbumin (OVA). The transfected cell line expresses OVA protein, which is also processed naturally by E.G7-OVA cells into an eight amino acid peptide, OVA257-264, with the sequence […]. […] Based on the positive results using FITC, the inventors followed a similar protocol in an attempt to induce immunity to the E.G7-OVA tumor by topical administration of the well-characterized, synthetic […] tumor-associated peptide.
C57BL/6 mice were treated as follows: 1) shaving alone; 2) topical administration of acetone and dibutyl phthalate; 3) topical administration of […] (240 μg/ml) in DMSO diluted in PBS, followed in 5 hours by acetone and dibutyl phthalate; and 4) topical administration of […] (240 μg/ml) in acetone and dibutyl phthalate. All mice were subsequently injected subcutaneously with 5×10^5 E.G7-OVA cells (5-times the minimal tumorogenic dose). Tumor-specific immunity was monitored by measuring the size of the developing tumor.
The mucous membranes lack the tough barrier posed by the stratum corneum of the skin. […] The EL4 parent tumor cell line, lacking chicken ovalbumin, was used as a negative control; no immunity against the EL4 tumor cells was seen. Thus, the inventors' hypothesis regarding penetration of the stratum corneum was confirmed; the […] peptide was not effectively reaching the immature dendritic cells, known as Langerhans cells, underlying the stratum corneum.
To enhance the effectiveness of cutaneous topical administration of peptide, […] was dissolved in DMSO and applied to the skin without further dilution. Dibutyl phthalate in a 50:50 mixture with acetone was applied to the same site 5 hr later. All mice were subsequently injected subcutaneously with 5×10^5 E.G7-OVA cells. The results shown in FIG. 6 indicate that the peptide in concentrated DMSO was apparently able to traverse the stratum corneum, effectively gaining access to the epidermal Langerhans cells. […] Thus, the tumor-specific peptide, […], in concentrated DMSO, penetrated the stratum corneum in sufficient concentration to be incorporated into the MHC class I molecule K^b on epidermal Langerhans cells, and in the presence of the migration inducer, dibutyl phthalate, was effectively presented to CD8+ CTLs in the draining lymph nodes.
To confirm the immunogenicity of the disclosed treatment, groups of 10 C57BL/6 mice were injected with 50 μl of 1.25 mM OVA protein in HBSS, with HBSS alone, or with nothing. This was followed an hour later by topical application of DBP in acetone or with nothing. One month later, the mice were inoculated subcutaneously with 5×10^5 EL4 tumor cells or with 5×10^5 E.G7-OVA tumor cells and subsequent tumor growth was measured.

For assay [2], the system named is dendritic cells in draining lymph node. Nature of the assay: Antigen-bearing dendritic cells in lymph nodes after injection of soluble protein or peptide with or without topical migration inducer. Format: in vivo, mice. The procedure: The injections were followed 2 hours later by topical application of dibutyl phthalate and acetone to the abdominal skin. The antigen-bearing dendritic cells that had migrated to the draining lymph node two days later were analyzed as described above and are shown in the upper right quadrant of each dot plot.
This was followed 2 hrs later by: A) no further treatment, or B) topical application of dibutyl phthalate and acetone to the abdominal skin. The antigen-bearing dendritic cells that had migrated to the draining lymph node two days later are shown in the upper right quadrant of each dot plot.
As stated previously, whether mature antigen-bearing dendritic cells will be encountered by and activate naive T cells in the lymph node is likely to depend not only on the number of antigen-bearing dendritic cells that enter the node, but also on the density of MHC:peptide complexes expressed on their membranes.

For assay [3] the test system is unchanged. Nature of the assay: Antigen-bearing dendritic cells in lymph node after aqueous antigen applied to skin with DBP and acetone. The conditions noted are these: aqueous solution applied to the skin with topical DBP and acetone (data not shown). Format: in vivo. From the text:
Similarly, when an aqueous solution of a […] peptide or OVA protein antigen was applied to the skin along with topical application of the migration inducer, DBP and acetone, no detectable antigen-bearing (i.e., K^b:[…] positive) dendritic cells appeared in the draining lymph node (data not shown).

Setting [4] is: 1st treatment day 1, 2nd none, assay day 16.
The mark [5] stands for this setting: 1st treatment day 1, 2nd none, assay day 23.
Where [6] appears, read: 1st treatment day 1, 2nd treatment day 14, assay day 16.
[7] abbreviates: 1st treatment day 1, 2nd treatment day 21, assay day 23.
[8] abbreviates: FITC 5 mg/ml in 50:50 dibutyl phthalate and acetone, 1st treatment day 1, 2nd none, assay day 2.
The mark [9] stands for this setting: 20 μl of 0.5 mM in HBSS injected, dibutyl phthalate and acetone 2 hours later, two days later.

As to `CCCCOC(=O)[C@@H](O)[C@H](O)C(=O)OCCCC` [DBT, dibutyl-D-tartarate], in assay [1], the “Amt. Antigen/DC (mean fluorescence intensity of the dendritic cells)” value (“Amt. Antigen/DC” below) was 364 arbitrary units, the “Total DC (FITC+ plus FITC- dendritic cells per lymph node)” value is on record as 29,050 cells per lymph node and the “Antigen^+ DC (FITC+ MHC class II^Hi cells per lymph node)” value is given as 14,175 cells per lymph node.

For the molecule `C[S+](C)[O-]` [DMSO, dimethylsulfoxide], the “effect on FITC+ and total dendritic cell migration into the lymph node” value in assay [1] was “no enhancement”.

Consider `CCCCOC(=O)/C=C/C(=O)OCCCC` [Test Agent #1, dibutylfumarate], for which, in assay [1], the “Amt. Antigen/DC” value is listed as 994 arbitrary units, the “Total DC (FITC+ plus FITC- dendritic cells per lymph node)” value is 10,088 cells per lymph node and the “Antigen^+ DC (FITC+ MHC class II^Hi cells per lymph node)” value was 4,242 cells per lymph node.

For the molecule `CC(C)CCCCCOC(=O)/C=C\C(=O)OCCCCCC(C)C` [Test Agent #2, diisooctylmaleate], in assay [1], the “Amt. Antigen/DC” value is reported as 1032 arbitrary units, the “Total DC (FITC+ plus FITC- dendritic cells per lymph node)” value is on record as 7,927 cells per lymph node and the “Antigen^+ DC (FITC+ MHC class II^Hi cells per lymph node)” value was 5,340 cells per lymph node.

In the case of `CCCCOC(=O)c1ccccc1C(=O)OCCCC` [dibutyl phthalate], the “Antigen-bearing Dendritic Cells/Node” value in assay [1] (setting [4]) is 1,776; in assay [1] (setting [5]) it was 0; in assay [1] (setting [6]), 99,840; in assay [1] (setting [7]), 49,203; in assay [1] (setting [8]), 64,220. Moreover, the “Cells per Lymph Node” value in assay [1] (setting [4]) is given as 4.52 × 10^6; in assay [1] (setting [5]) it was 3.87 × 10^6; in assay [1] (setting [6]), 1.28 × 10^7; in assay [1] (setting [7]), 6.93 × 10^6; in assay [1] (setting [8]), 6.76 × 10^6. For the same molecule, the “FITC+ Langerhans cells present in the lymph node” value in assay [1] (by 12 hours after FITC in acetone and dibutyl phthalate (FIG. 2)) is given as “High numbers”. For the same molecule, the “increase of lymph node cell population over baseline levels” value in assay [1] (five days after topical FITC in acetone and dibutyl phthalate (FIG. 3)) is given as “approximately 7.2 fold”. Also, the “effect on FITC+ and total dendritic cell migration into the lymph node” value in assay [1] was “striking effect”.

B1: OVA: Chicken ovalbumin, a 40 kDa protein used as prototypic experimental antigen (protein, UniProt P01012 2-386, looked up)
Ovalbumin: GSIGAASMEFCFDVFKELKVHHANENIFYCPIAIMSALAMVYLGAKDSTRTQINKVVRFDKLPGFGDSIEAQCGTSVNVHSSLRDILNQITKPNDVYSFSLASRLYAEERYPILPEYLQCVKELYRGGLEPINFQTAADQARELINSWVESQTNGIIRNVLQPSSVDSQTAMVLVNAIVFKGLWEKAFKDEDTQAMPFRVTEQESKPVQMMYQIGLFRVASMASEKMKILELPFASGTMSMLVLLPDEVSGLEQLESIINFEKLTEWTSSNVMEERKIKVYLPRMKMEEKYNLTSVLMAMGITDVFSSSANLSGISSAESLKISQAVHAAHAEINEAGREVVGSAEAGVDAASVSEEFRADHPFLFCIKHIATNAVLFFGRCVSP
As to B1, the “tumor protection against E.G7-OVA” value with E.G7-OVA tumor cells is “tumor protection”. Besides, in assay [2] (20 μl of 0.5 mM in HBSS injected at two sites in abdominal skin, dibutyl phthalate and acetone topically 2 hours later, two days later), the “Total Cells per Lymph Node” value is on record as 8.8 × 10^6. In assay [2] (setting [9]), the “Dendritic Cells per Lymph Node” value is 137,456 and the “K^b:SIINFEKL^+ DC per LymphNode” value is given as 61,424. For the same molecule, the Enhancement in assay [2] (K^b:SIINFEKL+ DC versus HBSS injection) was 31×. Also, in assay [2] (injection followed by topical induction of migration, two days later), the “increase in the number of antigen-bearing dendritic cells in the draining lymph nodes” value was found to be 31 fold. In assay [3], the “antigen-bearing (K^b:SIINFEKL positive) dendritic cells in the draining lymph node” value is “no detectable”.
